This passage reports Activity and MIC results from ChEMBL document CHEMBL6087476, “Positive Charge-Concentrated Dimeric Lipopeptides with Enhanced Protease Resistance: A Potential Solution for Systemic Bacterial Infections” (J Med Chem, 2025).

The term MIC denotes the smallest concentration in the dilution series that meets the test's criterion for growth inhibition.

Molecules are shown by their SMILES. Values after ≈ are worked out from the molar mass of the structure shown. Active and inactive are the calls of the source.

In one series the test system is Lipopolysaccharide (LPS). Put plainly: Binding affinity to Escherichia coli O111:B4 Lipopolysaccharide by fluorescent probe BODIPYTR-cadaverine (BC) assay. The following applies: dose 1-16 µM.
Series [1] concerns Escherichia coli. Put plainly: Antibacterial activity against Escherichia coli ATCC 25922 injected intraperitoneally in ICR mouse assessed as reduction bacterial load in spleen at 10 mg/kg, ip measured after 12 hrs by H and E staining based assay. The class given is functional, organism-based.
Series [2] deals with Escherichia coli. Put plainly: Bactericidal activity against Escherichia coli ATCC 25922 assessed as reduction in bacterial viability at 4 uM measured within 2 hrs. The class given is functional, organism-based.
Series [3] is described as follows: Toxicity in ICR mouse assessed as humpbacking at 20 mg/kg, ip measured after 1 hr. The series is classed as organism-based. The following applies: in vivo.
Series [4] relates to Escherichia coli. Put plainly: Antimicrobial activity against Escherichia coli ATCC 25922 assessed as increase in absorbance incubated for 20 to 22 hrs. The class given is functional. The following applies: time 20-22 hrs.

Take `CCCCCCCCCC(=O)NCCCC[C@H](N)C(=O)NCC(=O)NCC(=O)NCC(=O)N[C@H](CCCNC(=N)N)C(=O)N[C@@H](CCCNC(=N)N)C(=O)N[C@@H](CCCNC(=N)N)C(=O)N1CCC[C@H]1C(=O)N[C@@H](CSSC[C@H](NC(=O)[C@@H]1CCCN1C(=O)[C@H](CCCNC(=N)N)NC(=O)[C@H](CCCNC(=N)N)NC(=O)[C@@H](CCCNC(=N)N)NC(=O)CNC(=O)CNC(=O)CNC(=O)[C@@H](N)CCCCNC(=O)CCCCCCCCC)C(=O)O)C(=O)O`: the Activity result was “Dose-dependent-effect” in the series with Lipopolysaccharide (LPS) and “Non-toxic” in series [3]. In addition, in the series on Escherichia coli [1], the outcome was Active. Moreover, the outcome in the series with Escherichia coli [2] was inactive. The MIC in the series with Escherichia coli [4] turned out to be 4 µM (≈ 9.12 µg/mL).
